Measurements from patent US11299514B2, “Antimicrobial peptide AS-hepc3(48-56) of Acanthopagrus schlegelii and method thereof” (Xiamen University, priority 2019, dated 2022).
Values after ≈ are worked out from the molar mass of the structure shown. Peptide text beside a SMILES is read from it.

Columns and labels:
[1] = test system: Pseudomonas aeruginosa PAO1; experiment: Comparative experiment of drug resistance (serial passage, change of MIC); type: cell-based
From the text: FIG. 1 illustrates a comparison of antimicrobial resistance of an antimicrobial peptide AS-hepc3(48-56) of Acanthopagrus schlegelii and antibiotic meropenem against Pseudomonas aeruginosa PAO1, wherein the abscissa represents time (days), and the ordinate represents a ratio of change of a minimum inhibition concentration (MIC) and an initial antimicrobial concentration.
1. Comparison of the antimicrobial peptide AS-hepc3(48-56) and antibiotic meropenem against Pseudomonas aeruginosa PAO1. Pseudomonas Aeruginosa PAO1 was purchased from the China General Microbiological Culture Collection Center, Institute of Microbiology, Chinese Academy of Sciences.
A detailed method is as follows:
(1) Preserved Pseudomonas aeruginosa PAO1 was streaked on MH plates and was cultured at 37° C. overnight;
(2) A single clone was screened and was cultured in MH liquid medium at 37° C. and 200 rpm to a logarithmic stage;
(3) The strain was corrected at 5000 g for 2 minutes, the strain was resuspended in 10 mM sodium phosphate buffer (pH=7.4), and the strain was finally diluted with a mixture of the 10 mM sodium phosphate buffer and the MH liquid medium to enable a final concentration of the stain to be 5×10^5 cfu/mL;
(4) Synthesized powder of the antimicrobial peptide AS-hepc3(48-56) was dissolved in sterile Milli-Q water, and a peptide concentration was diluted to 8 μM, 12 μM, 16 μM, 24 μM, 32 μM, 48 μM, 64 μM, or 96 μM in double ratios;
(5) Antibiotic meropenem powder was dissolved in sterile Milli-Q water to configure a 5 mg/mL reserved solution, filtered by a 0.22 μm filter membrane, and diluted to different work concentrations being 0.0625 μg/mL, 0.125 μg/mL, 0.25 μg/mL, 0.5 μg/mL, 1 μg/mL, 2 μg/mL, 4 μg/mL, 8 μg/mL, 16 μg/mL, 32 μg/mL, 48 μg/mL, 64 μg/mL, 96 μg/mL, 128 μg/mL, 192 μg/mL, 256 μg/mL, or 512 μg/mL; and
(6) On a 96-well cell culture plate, each test strain was arranged into a blank control group, a negative control group, and a test group, and three parallel groups of each test group were as follows: • a) Blank control group: 50 μL of test peptide sample and 50 μL of medium; • b) Negative control group: 50 μL of sterile Milli-Q water and 50 μL of strain suspension; and • c) Test group: 50 μL of the test peptide sample and 50 μL of the strain suspension.
The 96-well cell culture plate was placed in a 37° C. incubator and was cultured for 18-24 hours, and MIC results in the test group were observed. The strain having the maximum peptide concentration at which the growth of the strain could be observed was repeatedly diluted thousand-fold, and 50 μL was repeatedly taken for a next generation of antimicrobial experiments for 150 generations.

[2] = test system: drug-resistant clinical Acinetobacter baumannii isolate QZ18050; type: cell-based; settings: A. baumannii QZ18050
From the text: (§1) 1. Strains were as follows: Pseudomonas aeruginosa PAO1, drug-resistant clinical Pseudomonas aeruginosa isolates QZ19121, QZ19122, QZ19123, QZ19124, and QZ19125, drug-resistant clinical Acinetobacter baumannii isolates QZ18050 and QZ18055, clinical isolation of resistant Staphylococcus aureus QZ18090 and QZ18091, drug-resistant clinical Klebsiella pneumoniae isolate QZ18106, and drug-resistant clinical Escherichia coli isolates QZ18109 and QZ18110. Pseudomonas aeruginosa PAO1 was purchased from the China General Microbiological Culture Collection Center, Institute of Microbiology, Chinese Academy of Sciences, and the clinical isolates were from the Laboratory of Second Affiliated Hospital of Fujian Medical University.
(§2) 2. A detailed method is as follows.
(§3) (1) Preserved strains were streaked on MH plates (Mueller-Hinton agar plates) and were cultured at 37° C. overnight;
(§4) (2) A single clone was screened and was cultured in a MH liquid medium (Mueller-Hinton agar liquid medium) at 37° C. and 200 rpm (revolutions per minute) to a logarithmic stage;
(§5) (3) The strains were collected at 5000 g (i.e., a 5000 g centrifugal force) for 2 minutes, the strains were resuspended with a 10 mM (mmol/L) sodium phosphate buffer (pH=7.4), and the strains were finally diluted with the MH liquid medium to enable a final concentration of the strains to be 5×10^5 cfu/mL;
(§6) (4) Synthesized powder of the antimicrobial peptide AS-hepc3(48-56) was dissolved in sterile Milli-Q water, and a peptide concentration (i.e., a concentration of the antimicrobial peptide AS-hepc3(48-56)) was diluted to 2 μM, 4 μM, 8 μM, 16 μM, 32 μM, or 64 μM in double ratios; and
(§7) (5) On a polypropylene sterile 96-well culture plate, each test strain was arranged into a blank control group, a negative control group, and a test group, and three parallel groups of each test group were as follows: • a) Blank control group: 50 μL of test peptide sample (i.e., the antimicrobial peptide AS-hepc3(48-56)) and 50 μL of medium (i.e., the Mueller-Hinton agar liquid medium); • b) Negative control group: 50 μL of sterile Milli-Q water and 50 μL of strain suspension; and • c) Test group: 50 μL of test peptide sample and 50 μL of the strain suspension.
(§8) The polypropylene sterile 96-well culture plate was placed in a 37° C. incubator for 18-24 hours, and MIC results in the test group were observed. After the test group was pipetted and mixed, an appropriate amount of the strain was drawn and spread on the MH plate and was cultured at 37° C. overnight, and MBC results were observed.
(§9) Annotations: MIC: minimum inhibitory concentration (μM), which is represented by a-b; a is a maximum peptide concentration at which a growth of the strain can be observed by naked eyes, and b is a minimum peptide concentration at which no growth of the strain can be observed by the naked eyes. MBC: Minimum bactericidal concentration (μM), which is a concentration that kills 99.9% of microbes.

[3] = test system: drug-resistant clinical Escherichia coli isolate QZ18110; type: cell-based; settings: E. coli QZ18110
From the text: as §1, §2, §3, §4, §5, §6, §7, §8, §9

[4] = test system: drug-resistant clinical Pseudomonas aeruginosa isolate QZ19121; type: cell-based; settings: P. aeruginosa QZ19121
From the text: as §1, §2, §3, §4, §5, §6, §7, §8, §9

[5] = test system: resistant Staphylococcus aureus QZ18091; type: cell-based; settings: S. aureus QZ18091
From the text: as §1, §2, §3, §4, §5, §6, §7, §8, §9

[6] = test system: drug-resistant clinical Escherichia coli isolate QZ18109; type: cell-based; settings: E. coli QZ18109
From the text: as §1, §2, §3, §4, §5, §6, §7, §8, §9

[7] = test system: drug-resistant clinical Acinetobacter baumannii isolate QZ18055; type: cell-based; settings: A. baumannii QZ18055
From the text: as §1, §2, §3, §4, §5, §6, §7, §8, §9

[8] = test system: drug-resistant clinical Pseudomonas aeruginosa isolate QZ19125; type: cell-based; settings: P. aeruginosa QZ19125
From the text: as §1, §2, §3, §4, §5, §6, §7, §8, §9

[9] = test system: resistant Staphylococcus aureus QZ18090; type: cell-based; settings: S. aureus QZ18090
From the text: as §1, §2, §3, §4, §5, §6, §7, §8, §9

[10] = test system: drug-resistant clinical Pseudomonas aeruginosa isolate QZ19124; type: cell-based; settings: P. aeruginosa QZ19124
From the text: as §1, §2, §3, §4, §5, §6, §7, §8, §9

[11] = test system: Pseudomonas aeruginosa PAO1; type: cell-based
From the text: as §1, §2, §3, §4, §5, §6, §7, §8, §9

[12] = test system: drug-resistant clinical Pseudomonas aeruginosa isolate QZ19123; type: cell-based; settings: P. aeruginosa QZ19123
From the text: as §1, §2, §3, §4, §5, §6, §7, §8, §9

[13] = test system: drug-resistant clinical Pseudomonas aeruginosa isolate QZ19122; type: cell-based; settings: P. aeruginosa QZ19122
From the text: as §1, §2, §3, §4, §5, §6, §7, §8, §9

[14] = test system: drug-resistant clinical Klebsiella pneumoniae isolate QZ18106; type: cell-based; settings: K. pneumoniae QZ18106
From the text: as §1, §2, §3, §4, §5, §6, §7, §8, §9

[15] = test system: mouse hepatocytes (AML12); experiment: in vitro; type: cell-based
From the text: (§10) FIGS. 2A and 2B illustrate cytotoxicity experimental result diagrams of antimicrobial peptide AS-hepc3(48-56) obtained by an MTS-PMS method, wherein FIG. 2A represents AML12 cells (alpha mouse liver 12 cells), FIG. 2B represents 293T cells, the abscissa represents an AS-hepc3(48-56) protein concentration (μM), and the ordinate represents a cell proliferation rate (%).
(§11) 1. Mouse hepatocytes (AML12) (mouse liver cells) and human kidney epithelial cells (293T) were selected to detect a cytotoxicity of the antimicrobial peptide AS-hepc3(48-56).
as §2
(§12) (6) Well-grown mouse hepatocytes (AML12) and human kidney epithelial cells (293T) were collected, a cell concentration was adjusted to 10^3-10^4 cells/mL, the cells were evenly blown, and 100 μL of strain suspension was placed in each well of a 96-well cell culture plate and was static cultured at a condition of 37° C. and […]. More than 50% of the strains were adhered to a wall.
(§13) (7) The medium is carefully sucked out, a corresponding medium comprising different concentrations (0 μM, 40 μM, or 80 μM) was added and was static cultured for 24 hours at a condition of 37° C. and […].
(§14) (8) After 20 μL of MTS-PMS solution was added and was incubated for 3 hours in the dark, an OD492 value (optical density reading at 492 nm wavelength) was detected by a microplate reader to evaluate the cytotoxicity of the antimicrobial peptide AS-hepc3(48-56).

[16] = test system: human kidney epithelial cells (293T); experiment: in vitro; type: cell-based
From the text: as §10, §11, §2, §12, §13, §14

[17] = in vitro; type: cell-based, human
From the text: as §10, §11, §2, §12, §13, §14

[18] = human, 293T cells (human kidney epithelial cells)
[19] = mouse, AML12 cells (mouse hepatocytes)

N=C(N)NCCC[C@H](NC(=O)[C@H](CS)NC(=O)[C@H](CCCNC(=N)N)NC(=O)[C@H](CCCNC(=N)N)NC(=O)[C@H](CCCNC(=N)N)NC(=O)[C@@H](N)CCCNC(=N)N)C(=O)N[C@@H](Cc1ccccc1)C(=O)N[C@@H](CS)C(=O)N[C@@H](CS)C(=O)O [AS-hepc3(48-56), Arg-Arg-Arg-Arg-Cys-Arg-Phe-Cys-Cys] (H-RRRRCRFCC-OH; N-terminus and C-terminus assumed)
anti-Pseudomonas aeruginosa MIC value relative to initial MIC value ([1]; after 150 days of continuous use): twice
MBC [2]: >32 µM
MIC [2]: >32 µM
MBC [3]: 8 µM (≈ 10 µg/mL)
MIC [3]: 4 to 8 µM
MBC [4]: 16 µM (≈ 20.1 µg/mL)
MIC [4]: 4 to 8 µM
MBC [5]: 8 µM (≈ 10 µg/mL)
MIC [5]: 4 to 8 µM
MBC [6]: 16 µM (≈ 20.1 µg/mL)
MIC [6]: 4 to 8 µM
MBC [7]: >32 µM
MIC [7]: >32 µM
MBC [8]: 16 µM (≈ 20.1 µg/mL)
MIC [8]: 8 to 16 µM
MBC [9]: 8 µM (≈ 10 µg/mL)
MIC [9]: 4 to 8 µM
MBC [10]: 16 µM (≈ 20.1 µg/mL)
MIC [10]: 4 to 8 µM
MBC [11]: 8 µM (≈ 10 µg/mL)
MIC [11]: 4 to 8 µM
MBC [12]: 16 µM (≈ 20.1 µg/mL)
MIC [12]: 4 to 8 µM
MBC [13]: 16 µM (≈ 20.1 µg/mL)
MIC [13]: 4 to 8 µM
MBC [14]: >32 µM
MIC [14]: >32 µM
cytotoxicity (in words) [15]: no cytotoxicity
cytotoxicity (in words) [16]: no cytotoxicity
viability at 24 h, 40 µM [17, 18]: > 95%
viability at 24 h, 80 µM [17, 18]: > 95%
viability at 24 h, 40 µM [17, 19]: > 95%
viability at 24 h, 80 µM [17, 19]: > 95%

C[C@@H](O)[C@H]1C(=O)N2C(C(=O)O)=C(S[C@@H]3CN[C@H](C(=O)N(C)C)C3)[C@H](C)[C@H]12 [meropenem]
anti-Pseudomonas aeruginosa MIC value relative to initial MIC value ([1]; after 3 days of continuous use): 4 times
anti-Pseudomonas aeruginosa MIC value relative to initial MIC value ([1]; after 10 days of continuous use): 16 times
anti-Pseudomonas aeruginosa MIC value relative to initial MIC value ([1]; after 90 days of use): 1024 times
